Test results taken from PMC6803849, “Biodistribution of Nanostructured Lipid Carriers in Mice Atherosclerotic Model” (Molecules, 2019).

How the values were obtained:
Assay in all cases: MMP inhibition assay with fluorogenic substrate
Type in all cases: biochemical
hMMP-12 = target: T1, hMMP-12 (Homo sapiens, UniProt P39900)
T1 construct: made in house
Description: (§1) The binding capacity of the RXP470.1 ligand grafted on RXP-NLC surface was first assessed through an inhibition assay in the presence of a fluorogenic substrate. The affinity and selectivity profile of RXP-NLC was determined on a set of eight human MMPs and compared to the parent ligand.
(§2) Affinity and selectivity profile of RXP-NLC were determined toward a set of 8 human MMPs. Human MMP-8, -9, -12, and -13 were produced at CEA in Saclay according to a procedure previously reported. Other MMPs were purchased from R&D Systems (Minneapolis, MN, USA). MMP inhibition assays were carried out in 50 mM Tris-HCl buffer, pH = 6.8, 10 mM CaCl2 at 25 °C as previously described. Pro-MMPs were pre-activated by p-aminophenylmercuric acetate following the method described by R&D Systems. Titration experiments were carried out to determine the active enzyme concentration for each MMP prior to the assay. Continuous kinetic assays were performed by recording the fluorescence increase induced by the cleavage of fluorogenic substrates (Mca-Pro-Leu- Gly-Leu-Dpa-Ala-Arg-NH2 for MMP-1, -2, -7, -8, -9, -10, -12, -13, and -14 and Mca-Arg-Pro-Lys-Pro- Val-Glu- Nva-Trp-Arg-LysDNP-NH2 for MMP-3). A typical experiment was performed in 200 μL of Tris buffer containing 0.2–0.5 nM of MMP, and a 4.5 μM concentration of fluorogenic substrates. Black, flat-bottomed, 96-well non-binding surface plates (Corning-Costar, Schiphol-RijK, Netherlands) were used for these tests. Fluorescence signals were monitored using a Fluoroskan Ascent photon counter spectrophotometer (Thermo-Labsystems, Courtaboeuf, France) equipped with a temperature control device and a plate shaker. […] Ki values were determined using the method proposed by Horovitz and Leviski.

hMMP-2 = target: T2, hMMP-2 (Homo sapiens, UniProt P08253)
T2 construct: purchased R&D Systems
T2 sequence (P08253 110-660): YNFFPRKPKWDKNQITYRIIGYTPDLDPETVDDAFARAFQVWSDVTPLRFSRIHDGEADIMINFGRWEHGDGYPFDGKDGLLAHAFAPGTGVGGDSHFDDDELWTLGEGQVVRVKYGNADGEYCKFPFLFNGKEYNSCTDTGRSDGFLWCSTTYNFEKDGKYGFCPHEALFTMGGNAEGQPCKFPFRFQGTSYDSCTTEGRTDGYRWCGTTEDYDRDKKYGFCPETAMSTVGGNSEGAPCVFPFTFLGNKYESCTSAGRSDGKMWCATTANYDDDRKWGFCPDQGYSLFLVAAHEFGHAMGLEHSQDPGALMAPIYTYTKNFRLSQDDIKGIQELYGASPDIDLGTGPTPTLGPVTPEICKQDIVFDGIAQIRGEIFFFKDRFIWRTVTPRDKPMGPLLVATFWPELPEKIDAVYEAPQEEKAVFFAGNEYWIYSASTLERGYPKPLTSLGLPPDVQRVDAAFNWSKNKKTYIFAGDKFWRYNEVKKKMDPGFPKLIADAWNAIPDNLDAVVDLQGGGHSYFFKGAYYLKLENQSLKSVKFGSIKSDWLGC
Description: as §1, §2

hMMP-8 = target: T3, hMMP-8 (Homo sapiens, UniProt P22894)
T3 construct: made in house
Description: as §1, §2

hMMP-13 = target: T4, hMMP-13 (Homo sapiens, UniProt P45452)
T4 construct: made in house
Description: as §1, §2

hMMP-14 = target: T5, hMMP-14 (Homo sapiens, UniProt P50281)
T5 construct: purchased R&D Systems
Description: as §1, §2

hMMP-9 = target: T6, hMMP-9 (Homo sapiens, UniProt P14780)
T6 construct: made in house
Description: as §1, §2

hMMP-10 = target: T7, hMMP-10 (Homo sapiens, UniProt P09238)
T7 construct: purchased R&D Systems
Description: as §1, §2

hMMP-3 = target: T8, hMMP-3 (Homo sapiens, UniProt P08254)
T8 construct: purchased R&D Systems
Description: as §1, §2

T8 sequence (P08254 100-477): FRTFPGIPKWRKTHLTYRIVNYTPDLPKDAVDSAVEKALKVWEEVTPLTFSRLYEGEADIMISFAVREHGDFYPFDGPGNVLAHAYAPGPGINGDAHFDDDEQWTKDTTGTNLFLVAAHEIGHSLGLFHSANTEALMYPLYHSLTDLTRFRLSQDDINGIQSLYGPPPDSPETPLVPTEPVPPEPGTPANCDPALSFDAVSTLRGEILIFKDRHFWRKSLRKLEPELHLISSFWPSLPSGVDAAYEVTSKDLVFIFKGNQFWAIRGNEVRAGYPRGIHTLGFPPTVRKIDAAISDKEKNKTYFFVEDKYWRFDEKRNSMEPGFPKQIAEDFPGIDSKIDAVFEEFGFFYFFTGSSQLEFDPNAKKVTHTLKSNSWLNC
T3 sequence (P22894 101-467): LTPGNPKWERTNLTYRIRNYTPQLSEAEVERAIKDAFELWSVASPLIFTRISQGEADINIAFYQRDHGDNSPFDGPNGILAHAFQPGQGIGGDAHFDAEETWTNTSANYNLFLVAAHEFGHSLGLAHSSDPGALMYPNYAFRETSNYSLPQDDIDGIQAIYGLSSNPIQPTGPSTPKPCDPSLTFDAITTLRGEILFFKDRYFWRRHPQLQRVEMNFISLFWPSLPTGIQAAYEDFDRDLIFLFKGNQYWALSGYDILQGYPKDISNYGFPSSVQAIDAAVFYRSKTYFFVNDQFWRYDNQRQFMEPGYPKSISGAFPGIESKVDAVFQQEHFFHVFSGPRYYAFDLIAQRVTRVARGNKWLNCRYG
T6 sequence (P14780 94-707): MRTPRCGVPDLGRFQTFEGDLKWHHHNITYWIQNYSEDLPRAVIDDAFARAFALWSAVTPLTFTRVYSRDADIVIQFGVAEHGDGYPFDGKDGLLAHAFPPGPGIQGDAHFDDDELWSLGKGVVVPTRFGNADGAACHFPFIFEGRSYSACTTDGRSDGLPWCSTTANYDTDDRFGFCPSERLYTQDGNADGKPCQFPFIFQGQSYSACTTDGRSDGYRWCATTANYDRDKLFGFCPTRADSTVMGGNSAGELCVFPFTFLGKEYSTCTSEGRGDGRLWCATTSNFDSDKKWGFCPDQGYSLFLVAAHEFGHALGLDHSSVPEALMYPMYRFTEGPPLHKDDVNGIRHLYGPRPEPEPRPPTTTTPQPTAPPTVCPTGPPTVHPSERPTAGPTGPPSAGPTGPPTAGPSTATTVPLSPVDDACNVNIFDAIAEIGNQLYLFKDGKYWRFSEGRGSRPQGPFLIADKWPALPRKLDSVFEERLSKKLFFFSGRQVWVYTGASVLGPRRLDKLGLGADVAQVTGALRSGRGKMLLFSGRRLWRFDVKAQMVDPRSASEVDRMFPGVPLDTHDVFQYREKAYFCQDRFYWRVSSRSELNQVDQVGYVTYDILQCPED
T1 sequence (P39900 106-470): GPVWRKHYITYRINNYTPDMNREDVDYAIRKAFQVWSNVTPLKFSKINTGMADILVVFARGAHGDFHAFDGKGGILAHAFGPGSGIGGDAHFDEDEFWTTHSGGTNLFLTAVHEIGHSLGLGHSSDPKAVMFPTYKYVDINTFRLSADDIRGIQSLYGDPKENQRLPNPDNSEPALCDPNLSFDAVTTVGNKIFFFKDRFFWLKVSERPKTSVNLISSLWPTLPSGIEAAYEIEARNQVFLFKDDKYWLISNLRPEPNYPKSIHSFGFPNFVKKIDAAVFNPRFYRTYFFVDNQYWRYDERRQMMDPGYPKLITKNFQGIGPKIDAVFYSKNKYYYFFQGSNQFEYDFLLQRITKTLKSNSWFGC
T7 sequence (P09238 99-476): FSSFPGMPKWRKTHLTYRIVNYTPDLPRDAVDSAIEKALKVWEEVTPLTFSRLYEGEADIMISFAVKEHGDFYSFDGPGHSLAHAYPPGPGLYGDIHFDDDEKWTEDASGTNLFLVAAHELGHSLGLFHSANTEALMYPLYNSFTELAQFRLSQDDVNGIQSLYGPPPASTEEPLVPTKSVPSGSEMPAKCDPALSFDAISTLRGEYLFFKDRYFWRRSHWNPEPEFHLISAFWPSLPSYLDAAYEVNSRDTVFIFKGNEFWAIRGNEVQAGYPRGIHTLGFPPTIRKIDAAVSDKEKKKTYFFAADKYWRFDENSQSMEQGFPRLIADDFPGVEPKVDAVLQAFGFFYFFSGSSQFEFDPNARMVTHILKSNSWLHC

Q: What does the source list for `NC(=O)[C@H](CCC(=O)O)NC(=O)[C@H](CCC(=O)O)NC(=O)[C@H](Cc1cc(-c2ccc(-c3cccc(Cl)c3)cc2)no1)CP(=O)(O)c1ccc(Br)cc1` [RXP470.1]?
A: Ki (hMMP-12; 50 mM Tris-HCl buffer, pH 6.8, 10 mM CaCl2, 25 °C, mean ± SD of three independent experiments): 0.00026 ± 5e-05 µM; Selectivity factor hMMP-12 (hMMP-12; relative to hMMP12): 1; Ki (hMMP-2): 0.052 ± 0.004 µM; Selectivity factor hMMP-2 (hMMP-2; relative to hMMP12): 200; Ki (hMMP-8): 0.12 ± 0.04 µM; Selectivity factor hMMP-8 (hMMP-8; relative to hMMP12): 462; Ki (hMMP-13): 0.011 ± 0.001 µM; Selectivity factor hMMP-13 (hMMP-13; relative to hMMP12): 42; Ki (hMMP-14): 0.15 ± 0.021 µM; Selectivity factor hMMP-14 (hMMP-14; relative to hMMP12): 577; Ki (hMMP-9): 0.17 ± 0.05 µM; Selectivity factor hMMP-9 (hMMP-9; relative to hMMP12): 654; Ki (hMMP-10): 0.017 ± 0.002 µM; Selectivity factor hMMP-10 (hMMP-10; relative to hMMP12): 65; Ki (hMMP-3): 0.08 ± 0.002 µM; Selectivity factor hMMP-3 (hMMP-3; relative to hMMP12): 308
